Results from ChEMBL document CHEMBL5137119, “Total Syntheses and Antibacterial Evaluations of Neocyclomorusin and Related Flavones” (2022).
In brackets after ≈: the same amount, converted by molar mass.

Experiments:
Format in all cases: functional
Staphylococcus aureus [1] = assay: Antibacterial activity against Staphylococcus aureus assessed as inhibition of bacterial growth
Escherichia coli [2] = assay: Antibacterial activity against Escherichia coli ATCC 25922 assessed as inhibition of bacterial growth incubated for 24 hrs by optical density based analysis
[3] = system: Staphylococcus epidermidis; assay: Antibacterial activity against Staphylococcus epidermidis ATCC 51625 assessed as inhibition of bacterial growth incubated for 24 hrs by optical density based analysis
Bacillus subtilis = assay: Antibacterial activity against Bacillus subtilis ATCC 11774 assessed as inhibition of bacterial growth incubated for 24 hrs by optical density based analysis
Staphylococcus aureus [4] = assay: Antibacterial activity against Staphylococcus aureus ATCC 25923 assessed as inhibition of bacterial growth incubated for 24 hrs by optical density based analysis
Providencia stuartii = assay: Antibacterial activity against Providencia stuartii assessed as inhibition of bacterial growth incubated for 18 hrs by p-iodonitrotetrazolium chloride dye based colorimetric assay
Klebsiella aerogenes = assay: Antibacterial activity against Enterobacter aerogenes assessed as inhibition of bacterial growth incubated for 18 hrs by p-iodonitrotetrazolium chloride dye based colorimetric assay
Pseudomonas aeruginosa = assay: Antibacterial activity against Pseudomonas aeruginosa assessed as inhibition of bacterial growth incubated for 18 hrs by p-iodonitrotetrazolium chloride dye based colorimetric assay
Klebsiella pneumoniae = assay: Antibacterial activity against Klebsiella pneumoniae assessed as inhibition of bacterial growth incubated for 18 hrs by p-iodonitrotetrazolium chloride dye based colorimetric assay
Escherichia coli [5] = assay: Antibacterial activity against Escherichia coli assessed as inhibition of bacterial growth incubated for 18 hrs by p-iodonitrotetrazolium chloride dye based colorimetric assay
Enterobacter cloacae = assay: Antibacterial activity against Enterobacter cloacae assessed as inhibition of bacterial growth incubated for 18 hrs by p-iodonitrotetrazolium chloride dye based colorimetric assay

Row | MIC (Staphylococcus aureus [1]) [µg/mL] | MIC (Providencia stuartii) [µg/mL] | MIC (Klebsiella aerogenes) [µg/mL] | MIC (Pseudomonas aeruginosa) [µg/mL] | MIC (Klebsiella pneumoniae) [µg/mL] | MIC (Escherichia coli [5]) [µg/mL] | MIC (Enterobacter cloacae) [µg/mL] | SMILES | MIC (Escherichia coli [2]) [µg/mL] | MIC [3] [µg/mL] | MIC (Bacillus subtilis) [µg/mL] | MIC (Staphylococcus aureus [4]) [µg/mL]
1 | 128 (≈ 333 µM) | – | – | – | – | – | – | COc1cc(O)c2c(=O)c3c(oc2c1)-c1ccc(O)cc1OC(C(C)(C)O)C3 (stereo unspecified) | > 128 | > 128 | > 128 | 128 (≈ 333 µM)
2 | – | 4 (≈ 9.16 µM) | 4 (≈ 9.16 µM) | 4 (≈ 9.16 µM) | 4 (≈ 9.16 µM) | 4 (≈ 9.16 µM) | 4 (≈ 9.16 µM) | CC1(C)C=Cc2c(cc(O)c3c(=O)c4c(oc23)-c2ccc(O)cc2OC(C(C)(C)O)C4)O1 (stereo unspecified) [NEOCYCLOMORUSIN] | > 128 | > 128 | 64 (≈ 147 µM) | 64 (≈ 147 µM)

More lines, now with the values behind:

Row | SMILES | MIC (Staphylococcus aureus [1]) [µg/mL] | MIC (Providencia stuartii) [µg/mL] | MIC (Klebsiella aerogenes) [µg/mL] | MIC (Pseudomonas aeruginosa) [µg/mL] | MIC (Klebsiella pneumoniae) [µg/mL] | MIC (Escherichia coli [5]) [µg/mL] | MIC (Enterobacter cloacae) [µg/mL] | MIC (Escherichia coli [2]) [µg/mL] | MIC [3] [µg/mL] | MIC (Bacillus subtilis) [µg/mL] | MIC (Staphylococcus aureus [4]) [µg/mL]
3 | CC1(C)S[C@@H]2[C@H](NC(=O)[C@H](N)c3ccccc3)C(=O)N2[C@H]1C(=O)O [AMPICILLIN] | – | – | – | – | – | – | – | 64 (≈ 183 µM) | 128 (≈ 366 µM) | > 128 | 4 (≈ 11.4 µM)
4 | CC(C)=CCc1c(-c2ccc(O)cc2O)oc2cc3c(c(O)c2c1=O)C=CC(C)(C)O3 [CUDRAFLAVONE B] | – | – | – | – | – | – | – | > 128 | 16 (≈ 38.1 µM) | 16 (≈ 38.1 µM) | 4 (≈ 9.51 µM)
5 | NC[C@H]1O[C@H](O[C@H]2[C@H](O)[C@@H](O[C@H]3O[C@H](CO)[C@@H](O)[C@H](N)[C@H]3O)[C@H](N)C[C@@H]2N)[C@H](O)[C@@H](O)[C@@H]1O [KANAMYCIN] | – | – | – | – | – | – | – | 16 (≈ 33 µM) | 1 (≈ 2.06 µM) | 2 (≈ 4.13 µM) | 4 (≈ 8.26 µM)
6 | CC(C)=CCc1c(-c2ccc(O)cc2O)oc2c3c(cc(O)c2c1=O)OC(C)(C)C=C3 [MORUSIN] | – | – | – | – | – | – | – | > 128 | 8 (≈ 19 µM) | 16 (≈ 38.1 µM) | 8 (≈ 19 µM)
